# Assay results: patent publication EP0600950B1, “AMIDE TETRAZOLE ACAT INHIBITORS” (priority 1991, dated 1993)
# Molecular target: acyl-CoA: cholesterol acyltransferase (ACAT)
# Assay: in vitro ACAT inhibition, rabbit intestinal microsomes (IAI)
# Type: biochemical
# Details: radiolabeled cholesterol oleate formed from radiolabeled oleic acid
# Description: The test assesses the ability of a test compound to inhibit the acylation of cholesterol by oleic acid by measuring the amount of radiolabeled cholesterol oleate formed from radiolabeled oleic acid in a tissue preparation containing rabbit intestinal microsomes (designated IAI) or from rat liver microsomes (designated LAI).
row,IC50,SMILES
1,9 nM,"CCCCCCCCCCCCn1nnc(C(C(=O)Nc2c(OC)cc(OC)cc2OC)c2ccccc2)n1 (racemic) [Example 13, (±) 2-Dodecyl-α-phenyl-N-(2,4,6-trimethoxyphenyl)-2H-tetrazole-5-acetamide]"
2,91 nM,"CCCCCCCCCCCCn1nnc(C(C(=O)Nc2ccccc2)c2ccccc2)n1 (racemic) [Example 14, (±)-2-dodecyl-N,α-diphenyl-2H-tetrazole-5-acetamide]"
3,8 nM,"CCCCCCCCCCCCn1nnc(C(C(=O)Nc2c(C(C)C)cccc2C(C)C)c2ccccc2)n1 (racemic) [Example 15, (±)-N-[2,6-bis(1-methylethyl)phenyl]-2-dodecyl-α-phenyl-2H-tetrazole-5-acetamide]"
4,8 nM,"CCCCCCCCCCCCn1nnc(C(C(=O)Nc2c(OC)ncnc2OC)c2ccccc2)n1 (racemic) [Example 16, (±)-N-(4,6-dimethoxy-5-pyrimidinyl)-2-dodecyl-α-phenyl-2H-tetrazole-5-acetamide]"
5,190 nM,"CCCCCCCCCCCCn1nnc(C(C(=O)Nc2ccc3c(C)cc(C)nc3n2)c2ccccc2)n1 (racemic) [Example 17, (±)-N-(5,7-dimethyl-1,8-naphthyridine-2-yl)-2-dodecyl-α-phenyl-2H-tetrazole-5-acetamide]"
6,28 nM,"CCCCCCCCCCCCn1nnc(C(C(=O)Nc2cnc3c(C)cc(C)cc3c2-c2ccccc2Cl)c2ccccc2)n1 (racemic) [Example 18, (±)-N-[4-(2-chlorophenyl)-6,8-dimethyl-3-quinolinyl]-2-dodecyl-α-phenyl-2H-tetrazole-5-acetamide]"
7,14 nM,"CCCCCCCCCCCCn1nnc(C(C(=O)Nc2c(C)nn(C)c2C)c2ccccc2)n1 (racemic) [Example 19, (±)-2-dodecyl-α-phenyl-N-(1,3,5-trimethyl-1H-pyrazol-4-yl)-2H-tetrazole-5-acetamide]"
8,47 nM,"CCCCCCCCCCCCn1nnc(C(C(=O)NC2CC2)c2ccccc2)n1 (racemic) [Example 20, (±)-N-cyclopropyl-2-dodecyl-α-phenyl-2H-tetrazole-5-acetamide]"
9,15 nM,"CCCCCCCCCCCCn1nnc(C(C(=O)Nc2ccc(F)cc2F)c2ccccc2)n1 (racemic) [Example 21, (±)-N-(2,4-difluoro-phenyl)-2-dodecyl-α-phenyl-2H-tetrazole-5-acetamide]"
10,91 nM,"CCCCCCCCCCCCn1nnc(C(C(=O)Nc2ccccn2)c2ccccc2)n1 (racemic) [Example 22, (±)-2-dodecyl-α-phenyl-N-2-pyridinyl-2H-tetrazole-5-acetamide]"
11,7.5 nM,"CCCCCCCCCCCCn1nnc(C(C(=O)Nc2ncccc2C)c2ccccc2)n1 (racemic) [Example 23, (±)-2-dodecyl-N-(3-methyl-2-pyridinyl)-α-phenyl-2H-tetrazole-5-acetamide]"
12,41 nM,"CCCCCCCCCCCCn1nnc(C(C(=O)Nc2c(C)ccc[n+]2[O-])c2ccccc2)n1 (racemic) [Example 24, (±)-2-Dodecyl-N-(3-methyl-2-pyridinyl)-2-phenyl-2H-tetrazole-5-acetamide, N-oxide]"
13,800 nM,"CCCCCCCCCCCCn1nnnc1C(C(=O)Nc1ccc(F)cc1F)c1ccccc1 (racemic) [Example 25, (±)-N-(2,4-Difluorophenyl)-1-dodecyl-α-phenyl-1H-tetrazole-5-acetamide]"
14,79 nM,"CCCCCCCCCCCCn1nnnc1C(C(=O)Nc1c(C(C)C)cccc1C(C)C)c1ccccc1 (racemic) [Example 26, (±)-N-[2,6-Bis(1-methylethyl)phenyl]-1-dodecyl-α-phenyl-1H-tetrazole-5-acetamide]"
15,770 nM,"CCCCCCCCCCCCn1nnc(C(C(=O)NC(C)(C)C)c2ccccc2)n1 (racemic) [Example 30, (±) N-(1,1-dimethylethyl)-2-dodecyl-α-phenyl-2H-tetrazole-5-acetamide]"
16,270 nM,"CCCCCCCCn1nnc(C(C(=O)Nc2c(OC)cc(OC)cc2OC)c2ccccc2)n1 (racemic) [Example 31, (±)-2-Octyl-α-phenyl-N-(2,4,6-trimethoxyphenyl)-2H-tetrazole-5-acetamide]"
17,53 nM,"CCCCCCCCCCCCCCCCn1nnc(C(C(=O)Nc2c(OC)cc(OC)cc2OC)c2ccccc2)n1 (racemic) [Example 32, (±) 2-Hexadecyl-α-phenyl-N-(2,4,6-trimethoxyphenyl)-2H-tetrazole-5-acetamide]"
18,29 nM,"CCCCCCCCCCCCn1nnc(C(C)(C(=O)Nc2c(OC)cc(OC)cc2OC)c2ccccc2)n1 (racemic) [Example 44, (±)-2-Dodecyl-α-methyl-α-phenyl-N-(2,4,6-trimethoxyphenyl)-2H-tetrazole-5-acetamide]"
19,660 nM,"CCCCCCCCCCCCn1nnc(C(C(=O)Nc2c(OC)cc(OC)cc2OC)c2ccc(N(C)C)cc2)n1 (racemic) [Example 51, (±)-α-[4-dimethylamino)phenyl]-2-dodecyl-N-(2,4,6-trimethoxy-phenyl)-2H-tetrazole-5-acetamide]"
20,36 nM,"CCCCCCCCCCCCn1nnc(C(C(=O)Nc2c(OC)cc(OC)cc2OC)c2ccc(F)cc2)n1 (racemic) [Example 52, (±)-2-Dodecyl-α-(4-fluorophenyl)-N-(2,4,6-trimethoxyphenyl)-2H-tetrazole-5-acetamide]"

row,IC50,SMILES
1,97 nM,"CCCCCCCCCCCCn1nnc(C(C(=O)Nc2c(OC)cc(OC)cc2OC)c2ccc3ccccc3c2)n1 (racemic) [Example 53, (±)-2-Dodecyl-α-2-naphthalenyl-N-(2,4,6-trimethoxyphenyl)-2H-tetrazole-5-acetamide]"
2,220 nM,"CCCCCCCCCCCCn1nnc(C(C(=O)Nc2c(OC)cc(OC)cc2OC)c2ccc(-c3ccccc3)cc2)n1 (racemic) [Example 54, (±)-α-([1,1'-biphenyl]-4-yl)-2-dodecyl-N-(2,4,6-trimethoxy-phenyl)-2H-tetrazole-5-acetamide]"
3,26 nM,"CCCCCCCCCCCCn1nnc(C(C(=O)Nc2c(C(C)C)cccc2C(C)C)c2ccccn2)n1 (racemic) [Example 55, (±)-N-[2,6-Bis(1-methylethyl)phenyl]-2-dodecyl-α-2-pyridinyl-2H-tetrazole-5-acetamide]"
4,31 nM,"CCCCCCCCCCCCn1nnc(C(C)C(=O)Nc2c(OC)cc(OC)cc2OC)n1 (racemic) [Example 58, (±)-2-Dodecyl-α-(methyl)-N-(2,4,6-trimethoxy-phenyl)-2H-tetrazole-5-acetamide]"
5,49 nM,"CCCCCCCCCCCCn1nnc(C(Cc2ccccc2)C(=O)Nc2c(OC)cc(OC)cc2OC)n1 (racemic) [Example 59, (±)-2-Dodecyl-α-(phenylmethyl)-N-(2,4,6-trimethoxyphenyl)-2H-tetrazole-5-acetamide]"
6,28 nM,"CCCCCCCCCCCCn1nnc(C(C(=O)Nc2c(OC)cc(OC)cc2OC)C2CCCCC2)n1 (racemic) [Example 60, (±)-2-Dodecyl-α-(cyclohexyl)-N-(2,4,6-trimethoxy-phenyl)-2H-tetrazole-5-acetamide]"
7,14 nM,"CCCCCCCCCCCCn1nnc(C(C(=O)Nc2c(OC)cc(OC)cc2OC)c2ccccc2)n1 (single isomer, unassigned; (+)) [Example 62, (+)-2-Dodecyl-α-phenyl-N-(2,4,6-trimethoxy-phenyl)-2H-tetrazole-5-acetamide]"
8,310 nM,"CCCCCCCCCCCCn1nnc(C(C(=O)Nc2c(OC)cc(OC)cc2OC)c2ccccc2)n1 (single isomer, unassigned; (-)) [Example 61, (-)-2-Dodecyl-α-phenyl-N-(2,4,6-trimethoxy-phenyl)-2H-tetrazole-5-acetamide]"
9,3 nM,"CCCCCCCCCCCCn1nnc(CC(=O)Nc2c(C(C)C)cccc2C(C)C)n1 [Example 1, N-[2,6-Bis(1-methylethyl)phenyl]-2-dodecyl-2H-tetrazole-5-acetamide]"
10,92 nM,"CCCCCCCCCCCCn1nnnc1CC(=O)Nc1c(C(C)C)cccc1C(C)C [Example 2, N-[2,6-Bis(1-methylethyl)phenyl]-1-dodecyl-1H-tetrazole-5-acetamide]"
11,7 nM,"CCCCCCCCCCCCn1nnc(CC(=O)Nc2c(OC)ncnc2OC)n1 [Example 3, N-(4,6-dimethoxy-5-pyrimidinyl)-2-dodecyl-2H-tetra-zole-5-acetamide]"
12,10 nM,"CCCCCCCCCCCCn1nnc(CC(=O)Nc2c(OC)cc(OC)cc2OC)n1 [Example 5, 2-dodecyl-N-(2,4,6-trimethoxyphenyl)-2H-tetrazole-5-acetamide]"
13,120 nM,"CCCCCCCCCCCCn1nnnc1CC(=O)Nc1c(OC)cc(OC)cc1OC [Example 6, 1-dodecyl-N-(2,4,6-trimethoxyphenyl)-1H-tetrazole-5-acetamide]"
14,28 nM,"CCCCCCCCCCCCn1nnc(CC(=O)Nc2ncccc2C)n1 [Example 7, 2-dodecyl-N-(3-methyl-2-pyridinyl)-2H-tetrazole-5-acetamide]"
15,280 nM,"CCCCCCCCCCCCn1nnc(CC(=O)Nc2ccc(F)cc2F)n1 [Example 9, N-(2,4-difluoro-phenyl)-2-dodecyl-2H-tetrazole-5-acetamide]"
16,17 nM,"CCCCCCCCCCCCn1nnc(CC(=O)Nc2c(C)nn(C)c2C)n1 [Example 11, 2-dodecyl-N-(1,3,5-trimethyl-1H-pyrazol-4-yl)-2H-tetrazole-5-acetamide]"
17,14 nM,"CCCCCCCCCCCCn1nnc(C(C)(C)C(=O)Nc2c(OC)cc(OC)cc2OC)n1 [Example 27, 2-Dodecyl-α,α-dimethyl-N-(2,4,6-trimethoxyphenyl)-2H-tetrazole-5-acetamide]"
18,18 nM,"C=CCC(CC=C)(C(=O)Nc1c(OC)cc(OC)cc1OC)c1nnn(CCCCCCCCCCCC)n1 [Example 28, 2-Dodecyl-α,α'-(2-propenyl)-N-(2,4,6-trimethoxyphenyl)-2H-tetrazole-5-acetamide]"
19,10 nM,"CCCCCCCCCCCCn1nnc(C2(C(=O)Nc3c(OC)cc(OC)cc3OC)CCCC2)n1 [Example 29, 1-(2-Dodecyl-2H-tetrazol-5-yl)-N-(2,4,6-trimethoxyphenyl)cyclopentanecarboxamide]"
20,17 nM,"CCCCCCCCCCCCCn1nnc(C(C)(C)C(=O)Nc2c(OC)cc(OC)cc2OC)n1 [Example 33, 2-Tridecyl-α,α-dimethyl-N-(2,4,6-trimethoxyphenyl)-2H-tetrazole-5-acetamide]"
